Source: patent publication US20240122179A1, “AUXINIC HERBICIDES AND METHODS OF USE THEREOF” (CORTEVA AGRISCIENCE LLC, priority 2021, published 2024)
Read-outs that look alike come from different tables or passages of the source.

Tests used:
[1] = system: Glycine max; test: whole plant or invertebrate; settings: for plant injury at 140 g/ha / plant injury at 280 g/ha: Glycine max, post-emergence, 504 h, read-out: Control/Injury; for Control/Injury: in vivo
Description: Plants were grown in a soil media composed of 90% by volume Promix BX (Premier Tech Horticulture, Quakertown, PA) and 10% Profile Greens Grade (Profile Products LLC, Buffalo Grove, IL). Promix BX contains approximately 83% Sphagnum Peat Moss, 13% Perlite, 5% vermiculite, and proprietary amounts of limestone, starter fertilizer, and wetting agent. Profile Greens Grade is a sand-sized granule formed from calcining illite and montmorillonite clay. Several seeds of each species were planted in 10 cm square pots and top watered twice daily. Plant material was propagated in a warm greenhouse with temperature ranging from 25 to 28° C. and 50 to 60% relative humidity at the Corteva Global Headquarters (Indianapolis, Indiana, USA). Natural light was supplemented with 1000-watt metal halide overhead lamps with an average illumination of 500 μE m^−2 s^−1 photosynthetic active radiation for 16 consecutive hours each day. Plants were top-watered prior to herbicide application and sub-watered after herbicide application.
Appropriate amounts of test materials were weighed out into glass vials in their technical form to deliver either 140 or 280 g acid equivalent (ae)/ha. The samples were dissolved in 3 ml of Solvent 1. Solvent 1 is 97% acetone and 3% dimethyl sulfoxide and serves as a general-purpose solvent (GPS) for dissolving technical materials. […] The samples were then diluted to their final concentration using 17 ml of solvent 2 for a total of 20 ml of spray solution. Solvent 2 contains 41.58% GPS, 45.53% water, 11.88% isopropyl alcohol, 0.99% crop oil concentrate and 0.02% Trition X-155 surfactant. All percentages are listed on a volume basis. Dicamba diglycolamine was applied as a formulated herbicide, Clarity™ and diluted with solvent 2 to compare all materials in the same spray solution.
Herbicide applications were made to 3 to 4 replicates of each plant species at the 2 to 8 leaf stage, depending on the species. Treatments were applied with a research track-sprayer (Generation III Research Sprayer manufactured by DeVries Manufacturing in Hollandale, MN, USA) calibrated to deliver a spray volume of 187 L/ha. The track-sprayer was fitted with an 8003E nozzle from Spray Systems Company (North Avenue and Schmale Road, P.O. Box 7900, Wheaton, IL 60187), and used a spray pressure of 276 kPa pressure and a speed of 3.1 km/h. The nozzle height was 46 cm above the plant canopy. The experimental design used for the trials was a randomized complete block with 3 or 4 replications per treatment. After application, plants were placed on carts according to the randomization and returned to the greenhouse. Plants were sub-watered after treatment with Indianapolis city water or fertilized three times a week with a commercial fertilizer solution (Jack's Professional 15-5-15 4 Ca 2 Mg fertilizer (manufactured by JR PETERS INC., 6656 Grant Way, Allentown, PA 18106; www.jrpeters.com). Percent visual control assessments were made on a scale of 0 to 100% (where 0 was no control and 100 was complete plant death) at 7, 14, and 21 days after treatment.
In conformity with the methods outlined in Example 49, the effect of representative experimental compounds on the growth of Glycine max was determined at 2 different levels (respectively, 140 and 280 g acid equivalent (ae)/ha) of the experimental actives tested. Plants were treated with one of the compounds, a control plant was not treated. Twenty-one days after treatment, the plants were measured. The data is present as a percent reduction in plant size relative to the untreated control.

[2] = system: Amaranthus palmeri (AMAPA); test: Postemergence herbicide evaluation, percent reduction in plant size vs untreated control, 21 days after treatment; format: in vivo, Amaranthus palmeri (Palmer amaranth); settings: post-emergence, 504 h, postemergence, read-out: Control/Injury; for pest or weed control at 140 g/ha: rate 140 g ae/ha; for pest or weed control at 280 g/ha: rate 280 g ae/ha
Summary of the method: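 Greenhouse-grown Palmer amaranth (25 to 28° C, 16 h light) sprayed postemergence at the 2 to 8 leaf stage with 140 or 280 g ae/ha in acetone/DMSO-based solution containing crop oil concentrate, 187 L/ha by track sprayer. Three to four replicates; plant size measured 21 days after treatment as percent reduction versus untreated control.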

[3] = system: Ambrosia artemisiifolia (AMBEL); test: as above; format: in vivo, Ambrosia artemisiifolia (common ragweed); settings: post-emergence, 504 h, AMBEL, postemergence, read-out: Control/Injury; for pest or weed control at 140 g/ha: rate 140 g ae/ha; for pest or weed control at 280 g/ha: rate 280 g ae/ha
Summary of the method: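 Greenhouse-grown plants (25–28 °C, 16 h light) were sprayed postemergence at the 2–8 leaf stage with 140 or 280 g ae/ha in acetone/DMSO-based spray solution with crop oil and surfactant, at 187 L/ha by track sprayer. There were 3–4 replicates. Plant size was measured 21 days after treatment versus untreated plants.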

[4] = system: Kochia scoparia (KCHSC); test: as above; format: in vivo; settings: Bassia scoparia, post-emergence, 504 h, KCHSC, postemergence, read-out: Control/Injury; for pest or weed control at 140 g/ha: rate 140 g ae/ha; for pest or weed control at 280 g/ha: rate 280 g ae/ha
Summary of the method: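 Greenhouse-grown plants (25-28 °C, 16 h light) at the 2 to 8 leaf stage were track-sprayed postemergence at 140 or 280 g ae/ha in acetone/DMSO-based spray solution with crop oil and surfactant, at 187 L/ha, in 3-4 randomized replicates.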

[5] = system: Conyza canadensis (L.) (ERICA); test: as above; format: in vivo, Conyza canadensis (L.) (Horseweed); settings: Erigeron canadensis, post-emergence, 504 h, ERICA, postemergence, read-out: Control/Injury; for pest or weed control at 140 g/ha: rate 140 g ae/ha; for pest or weed control at 280 g/ha: rate 280 g ae/ha
Summary of the method: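 Horseshoe-weed (horseweed) seedlings at 2 to 8 leaf stage in greenhouse (25-28° C, 16 h light), sprayed postemergence at 140 or 280 g ae/ha in acetone/DMSO-based spray solution, 187 L/ha track-sprayer. Randomized complete block, 3-4 replicates; plant size measured 21 days after treatment as percent reduction vs untreated controls.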

[6] = system: Amaranthus rudis (AMATA); test: as above; format: in vivo, Amaranthus rudis (tall water hemp); settings: Amaranthus tuberculatus, post-emergence, 504 h, AMATA, postemergence, read-out: Control/Injury; for pest or weed control at 140 g/ha: rate 140 g ae/ha; for pest or weed control at 280 g/ha: rate 280 g ae/ha
Summary of the method: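 Greenhouse-grown tall waterhemp (25-28° C, 16 h light) at the 2-8 leaf stage, treated by track sprayer at 187 L/ha with compound at 140 or 280 g ae/ha in acetone/DMSO-based spray solution with crop oil and surfactant. 3-4 replicates per treatment, randomized complete block; plant size reduction versus untreated control measured 21 days after treatment.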

[7] = R-AMAPA, percent reduction vs untreated control, 21 days after treatment
[8] = percent reduction vs untreated control, 21 days after treatment
[9] = percent reduction vs untreated, 21 days after treatment

SMILES	plant injury at 140 g/ha [1]	plant injury at 280 g/ha [1]	pest or weed control at 140 g/ha [2, 7]	pest or weed control at 280 g/ha [2, 7]	pest or weed control at 140 g/ha [3]	pest or weed control at 280 g/ha [3]	pest or weed control at 140 g/ha [4, 8]	pest or weed control at 280 g/ha [4, 8]	pest or weed control at 140 g/ha [5, 8]	pest or weed control at 280 g/ha [5, 8]	pest or weed control at 140 g/ha [6]	pest or weed control at 280 g/ha [6]	also measured
COc1c(Cl)ccc(Cl)c1C(=O)O/N=C(\C)C(C)(C)C [Compound A-82]	27%	7%	85%	83%	90%	88%	98%	88%	91%	96%	78%	72%	–
COc1c(Cl)ccc(Cl)c1C(=O)O/N=C(\N)CCC/C(N)=N/OC(=O)c1c(Cl)ccc(Cl)c1OC [Compound A-144]	–	–	59%	71%	88%	88%	–	–	–	–	71%	77%	Control/Injury [1]: 0; pest or weed control at 140 g/ha [4, 9]: 89%; pest or weed control at 280 g/ha [4, 9]: 99%; pest or weed control at 140 g/ha [5, 9]: 83%; pest or weed control at 280 g/ha [5, 9]: 75%
COc1c(Cl)ccc(Cl)c1C(=O)O/N=C/c1cccnc1 [Compound A-81]	19%	20%	17%	15%	15%	27%	2%	7%	0%	7%	3%	8%	–
COc1c(Cl)ccc(Cl)c1C(=O)N1C(=O)C(=O)c2ccccc21 [Compound A-116]	–	–	–	–	3%	10%	–	–	–	–	5%	33%	Control/Injury [1]: 2; pest or weed control at 140 g/ha ([2]; AMAPA): 8%; pest or weed control at 280 g/ha ([2]; AMAPA): 30%; pest or weed control at 140 g/ha [4, 9]: 0%; pest or weed control at 280 g/ha [4, 9]: 5%; pest or weed control at 140 g/ha [5]: 3%; pest or weed control at 280 g/ha [5]: 5%
COc1c(Cl)ccc(Cl)c1C(=O)Oc1ccc(Cl)cc1 [Compound A-76]	4%	4%	55%	65%	80%	83%	–	–	68%	55%	68%	67%	pest or weed control at 140 g/ha [4]: 83%; pest or weed control at 280 g/ha [4]: 87%
COc1c(Cl)ccc(Cl)c1C(=O)NS(=O)(=O)c1nccn1C [Compound A-79]	6%	3%	13%	10%	15%	22%	0%	3%	0%	2%	7%	13%	–
COc1c(Cl)ccc(Cl)c1C(=O)Nc1ccc(Cl)cc1 [Compound A-77]	8%	8%	82%	78%	67%	77%	–	–	40%	68%	83%	85%	pest or weed control at 140 g/ha [4]: 96%; pest or weed control at 280 g/ha [4]: 93%
CCOC(=O)C(=NOC(=O)c1c(Cl)ccc(Cl)c1OC)C(=O)OCC [Compound A-87]	5%	28%	62%	53%	70%	65%	90%	70%	30%	33%	37%	20%	–
